Source: patent publication US12351556B2, “Pyridin-2(1H)one derivatives, their preparation and their use for the treatment of pain” (INSTITUT NATIONAL DE LA SANTE ET DE LA RECHERCHE MEDICALE …, priority 2019, dated 2025)
“Also recorded” adds a separate entry of the source. Like-named read-outs stand apart in the source and are kept apart here.

How the values were obtained:
[1] = system: inflammatory MA (face CFA model); assay: Face Complete Freund's Adjuvant (CFA) model of inflammatory mechanical allodynia; type: in vivo; conditions: rat, 10 mg/kg intra-peritoneally, 30 min before CFA
[2] = system: panel of 13 protein kinases; assay: ICKP screening, whole panel of 13 protein kinases; type: biochemical, human; conditions: 1 μM
Procedure: FIG. 4 illustrates the studies carried out for compounds 67 and 69. Compounds 67 and 69 (FIG. 4B) were evaluated at the International Center For Kinase Profiling (ICKP, Dundee, Scotland) toward a panel of 13 protein kinases. The results (FIG. 4A) were expressed as the mean percentage of residual activity at 1 μM concentration (duplicate assays). Small disks: ≥90%, larger disk: 59%, for both compounds. The tree was generated using the Kinome Render software, and the illustration reproduced courtesy of Cell Signaling Technology, Inc. (www.cellsignal.com) Chartier et al PeerJ 2013, 1:e126.
(§1) Results are expressed as the mean percentage of residual activity at 10 μM (Table 3) or 1 μM (Table 4). They are illustrated on FIGS. 3 and 4.
(§2) The selectivity of compound 69 was evaluated at 1 μM toward another panel containing all four p38 MAPK isoforms, ERK1, ERK2 as well as other protein kinases close to p38α MAPK in the kinome phylogenetic tree (FIG. 4, Table 4). […] Its IC50 toward p38α MAPK was determined, showing a value in the micromolar range (IC50=3.0±0.1 μM).

[3] = system: facial neuropathic MA (IoN-CCl); assay: Neuropathic MA: chronic constriction injury of the infraorbital nerve (IoN-CCl); type: in vivo; conditions: rat, intracisternal 5 μL at 100 μM, 14 days after IoN-CCl
Procedure: Time courses of changes in behavioral responses (allodynic score) evoked by normally innocuous mechanical stimuli (6-g von Frey filament) applied on the face of rats intracisternally treated with compound 69 (5 μL at 100 μM) or vehicle. In A, compound 69 or vehicle was preemptively applied 30 min before subcutaneous injection of CFA (at time 0). In B, compound 69 or vehicle was applied (at time 0) 14 days after IoN-CCl; that is, once a stable MA was established. […] Results are presented as mean±s.e.m.; n=4 (A) and n=5 (B) in each group. Allodynic score (from 0 to 4) according to Vos et al. J. Neurosci. 1994, 14, 2708-2723.
Rat model of neuropathic MA: chronic constriction injury of the rat's infraorbital nerve (IoN-CCl).
IoN-CCl was performed following a previously established surgical procedure Vos et al J. Neurosci. […]
For investigating the effects of synthetized compounds upon mechanical allodynia, animals were briefly (<2 min) anesthetized using a mask with 2% isoflurane and received an intracisternal injection of 5 μL of compound (100 μM) or vehicle alone (saline+1% DMSO) using a 10 μL Hamilton syringe. […] The behavioral responses were observed and quantified by a second experimenter (see below). […]
Compound 69 was also evaluated in a rat model of facial neuropathic MA produced by the constriction injury of the rat infraorbital nerve (IoN-CCl; J. Neurosci. 1994, 14, 2708-2723) (FIG. 2B). […]

[4] = target: p38α MAPK (Homo sapiens (Human), UniProt Q16539); assay: p38 alpha IC50; type: biochemical
Procedure: (§3) Studies were undertaken to identify the possible biological target(s) of compound 69. The activation in neurons of PK such as PKCγ, ERK or p38 MAPK can contribute to pain hypersensitivity. Therefore, it was decided to screen compound 69 toward a panel of 50 PKs that provide a representative sampling of the human kinome (FIG. 3, Table 3) (Biochem. J. 2007, 408, 297-315). In this panel, p38α MAPK was identified as the privileged target, with 19% of kinase residual activity at 10 μM compound concentration.
as §2

[5] = target: EF2K (Homo sapiens (Human), UniProt O00418); assay: ICKP protein kinase panel screening; type: biochemical; conditions: duplicate assays, read-out: mean % residual activity
Procedure: (§4) FIG. 3 illustrates the human kinome. Compound 69 was evaluated at the International Center For Kinase Profiling (ICKP, Dundee, Scotland) toward a panel of 50 protein kinases that provide a representative sampling of the human kinome. The results were expressed as the mean percentage of residual activity at 10 μM concentration (duplicate assays). Small disks: ≥65%, larger disk: 19%. The black square indicates the kinome region containing protein kinases evaluated in a second screening (FIG. 4, Table 4). The tree was generated using the Kinome Render software, and the illustration reproduced courtesy of Cell Signaling Technology, Inc. (www.cellsignal.com) Chartier et al PeerJ 2013, 1:e126.
as §1, §3

[6] = target: Aurora B (Homo sapiens (Human), UniProt Q96GD4); assay: ICKP protein kinase panel screening; type: biochemical; conditions: duplicate assays, read-out: mean % residual activity
Procedure: as §4, §1, §3

[7] = target: TrkA (Homo sapiens (Human), UniProt P04629); assay: ICKP protein kinase panel screening; type: biochemical; conditions: duplicate assays, read-out: mean % residual activity
Procedure: as §4, §1, §3

[8] = target: JAK3 (Homo sapiens (Human), UniProt P52333); assay: ICKP protein kinase panel screening; type: biochemical; conditions: duplicate assays, read-out: mean % residual activity
Procedure: as §4, §1, §3

[9] = target: PLK1 (Homo sapiens (Human), UniProt P53350); assay: ICKP protein kinase panel screening; type: biochemical; conditions: duplicate assays, read-out: mean % residual activity
Procedure: as §4, §1, §3

[10] = target: CK1δ (Homo sapiens (Human), UniProt P48730); assay: ICKP protein kinase panel screening; type: biochemical; conditions: duplicate assays, read-out: mean % residual activity
Procedure: as §4, §1, §3

Sequence of p38α MAPK (Q16539 whole entry): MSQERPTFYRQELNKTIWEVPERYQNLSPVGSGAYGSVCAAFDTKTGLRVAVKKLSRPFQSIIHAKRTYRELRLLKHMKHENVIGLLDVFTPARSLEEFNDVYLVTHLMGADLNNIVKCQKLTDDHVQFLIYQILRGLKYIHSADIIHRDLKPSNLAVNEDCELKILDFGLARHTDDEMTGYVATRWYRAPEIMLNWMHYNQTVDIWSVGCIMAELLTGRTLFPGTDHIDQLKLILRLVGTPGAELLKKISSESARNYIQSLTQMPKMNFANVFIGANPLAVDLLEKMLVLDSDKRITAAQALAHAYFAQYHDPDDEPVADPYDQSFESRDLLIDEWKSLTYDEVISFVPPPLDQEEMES
Sequence of PLK1 (P53350 whole entry): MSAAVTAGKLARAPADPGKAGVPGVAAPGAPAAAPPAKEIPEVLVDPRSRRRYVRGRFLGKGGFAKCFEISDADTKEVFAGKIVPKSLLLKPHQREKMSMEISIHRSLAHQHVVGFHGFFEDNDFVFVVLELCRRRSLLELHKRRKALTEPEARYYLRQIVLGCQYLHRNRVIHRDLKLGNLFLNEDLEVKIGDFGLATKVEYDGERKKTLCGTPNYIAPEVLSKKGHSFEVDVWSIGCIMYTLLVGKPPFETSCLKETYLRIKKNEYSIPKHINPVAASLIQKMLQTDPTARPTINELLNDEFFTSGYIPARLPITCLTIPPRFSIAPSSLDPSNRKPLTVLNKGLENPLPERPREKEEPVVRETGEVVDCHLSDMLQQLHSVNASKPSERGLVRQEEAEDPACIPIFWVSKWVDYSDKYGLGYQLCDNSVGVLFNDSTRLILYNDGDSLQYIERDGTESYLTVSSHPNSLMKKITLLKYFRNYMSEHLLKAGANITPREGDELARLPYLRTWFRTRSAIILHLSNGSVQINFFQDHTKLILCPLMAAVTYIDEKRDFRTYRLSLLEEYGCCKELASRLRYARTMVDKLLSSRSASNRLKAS
Sequence of CK1δ (P48730 whole entry): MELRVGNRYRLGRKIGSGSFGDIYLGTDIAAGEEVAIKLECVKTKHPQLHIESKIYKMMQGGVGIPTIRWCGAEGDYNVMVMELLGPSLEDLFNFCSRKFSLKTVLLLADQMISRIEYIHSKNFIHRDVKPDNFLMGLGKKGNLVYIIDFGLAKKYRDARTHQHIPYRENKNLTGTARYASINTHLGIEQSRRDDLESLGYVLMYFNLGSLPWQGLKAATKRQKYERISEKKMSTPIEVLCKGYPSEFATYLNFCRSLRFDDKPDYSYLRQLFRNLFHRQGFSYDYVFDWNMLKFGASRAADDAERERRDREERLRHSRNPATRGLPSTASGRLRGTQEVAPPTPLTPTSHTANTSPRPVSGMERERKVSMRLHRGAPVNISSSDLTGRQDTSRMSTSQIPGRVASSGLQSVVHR
Sequence of TrkA (P04629 33-796): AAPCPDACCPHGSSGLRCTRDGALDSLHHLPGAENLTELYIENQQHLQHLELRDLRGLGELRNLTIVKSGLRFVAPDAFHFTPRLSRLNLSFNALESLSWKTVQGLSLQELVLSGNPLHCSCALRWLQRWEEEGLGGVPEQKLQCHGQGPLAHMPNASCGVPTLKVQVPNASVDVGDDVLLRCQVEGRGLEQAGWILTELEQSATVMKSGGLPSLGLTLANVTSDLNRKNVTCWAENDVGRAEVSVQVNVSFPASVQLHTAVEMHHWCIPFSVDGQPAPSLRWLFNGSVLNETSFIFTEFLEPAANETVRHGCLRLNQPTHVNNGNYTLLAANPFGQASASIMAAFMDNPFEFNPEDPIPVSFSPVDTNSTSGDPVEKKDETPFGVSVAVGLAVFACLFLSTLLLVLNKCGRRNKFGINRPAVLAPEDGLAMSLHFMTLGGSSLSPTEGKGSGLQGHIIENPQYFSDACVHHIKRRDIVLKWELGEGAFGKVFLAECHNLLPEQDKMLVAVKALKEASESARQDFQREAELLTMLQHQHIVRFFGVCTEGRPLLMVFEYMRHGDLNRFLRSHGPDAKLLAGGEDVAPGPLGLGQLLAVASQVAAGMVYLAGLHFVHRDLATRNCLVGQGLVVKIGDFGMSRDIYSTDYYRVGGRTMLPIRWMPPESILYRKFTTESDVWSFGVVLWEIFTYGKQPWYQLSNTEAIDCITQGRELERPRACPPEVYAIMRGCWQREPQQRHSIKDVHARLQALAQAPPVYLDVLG
Sequence of Aurora B (Q96GD4 whole entry): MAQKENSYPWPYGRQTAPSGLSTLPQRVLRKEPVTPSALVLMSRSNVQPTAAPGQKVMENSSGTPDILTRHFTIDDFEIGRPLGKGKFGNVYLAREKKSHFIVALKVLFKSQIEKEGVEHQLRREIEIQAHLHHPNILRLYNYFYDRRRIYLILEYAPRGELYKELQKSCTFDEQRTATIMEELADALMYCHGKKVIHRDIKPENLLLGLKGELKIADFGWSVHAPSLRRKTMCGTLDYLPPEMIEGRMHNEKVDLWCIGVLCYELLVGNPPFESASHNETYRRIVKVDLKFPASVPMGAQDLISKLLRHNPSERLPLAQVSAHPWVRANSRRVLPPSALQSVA
Sequence of JAK3 (P52333 whole entry): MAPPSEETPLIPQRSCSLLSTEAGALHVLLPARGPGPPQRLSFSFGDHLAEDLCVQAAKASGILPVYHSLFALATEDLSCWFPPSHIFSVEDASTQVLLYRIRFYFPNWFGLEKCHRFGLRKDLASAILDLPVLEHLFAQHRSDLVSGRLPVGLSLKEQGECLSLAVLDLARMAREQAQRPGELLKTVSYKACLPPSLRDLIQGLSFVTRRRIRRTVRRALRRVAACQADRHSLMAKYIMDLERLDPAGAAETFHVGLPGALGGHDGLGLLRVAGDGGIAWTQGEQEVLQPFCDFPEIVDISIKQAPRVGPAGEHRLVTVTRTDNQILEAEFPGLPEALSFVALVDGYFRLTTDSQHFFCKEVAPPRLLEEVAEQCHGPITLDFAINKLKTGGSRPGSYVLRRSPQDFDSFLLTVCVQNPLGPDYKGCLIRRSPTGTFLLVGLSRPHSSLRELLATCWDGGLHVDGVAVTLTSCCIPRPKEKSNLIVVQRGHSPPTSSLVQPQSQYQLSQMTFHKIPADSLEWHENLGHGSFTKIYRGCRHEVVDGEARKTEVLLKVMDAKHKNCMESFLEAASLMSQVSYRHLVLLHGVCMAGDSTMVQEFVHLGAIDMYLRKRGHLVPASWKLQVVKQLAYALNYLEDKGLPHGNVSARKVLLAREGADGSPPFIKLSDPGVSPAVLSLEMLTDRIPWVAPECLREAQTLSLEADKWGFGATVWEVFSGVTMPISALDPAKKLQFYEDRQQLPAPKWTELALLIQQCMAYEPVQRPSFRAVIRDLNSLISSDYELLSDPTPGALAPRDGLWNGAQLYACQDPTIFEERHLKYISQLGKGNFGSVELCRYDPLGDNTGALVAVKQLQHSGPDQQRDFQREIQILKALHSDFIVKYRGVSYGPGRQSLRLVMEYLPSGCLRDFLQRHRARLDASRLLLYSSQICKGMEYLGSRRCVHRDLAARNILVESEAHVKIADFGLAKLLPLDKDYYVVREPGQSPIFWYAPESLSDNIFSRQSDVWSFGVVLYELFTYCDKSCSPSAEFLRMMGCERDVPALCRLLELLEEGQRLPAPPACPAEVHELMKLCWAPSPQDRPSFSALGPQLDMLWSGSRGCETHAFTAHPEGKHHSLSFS

## O=c1[nH]cc(Nc2ccccc2)cc1-c1ccccc1Br [Compound 69, 3-(2-Bromophenyl)-5-(phenylamino)pyridin-2(1H)-one]
[1]
  prevention of inflammatory MA (allodynic score), systemic application: completely suppressed
[2]; all kinases except p38α MAPK
  mean percentage of residual activity, other kinases of the panel (small disks): ≥ 90%
[2]; panel of 13 kinases
  selectivity for p38α MAPK over the other protein kinases incl. p38 isoforms: selective of p38α MAPK over the other protein kinases tested in this panel; also recorded: selective p38α MAPK inhibitor
[3]
  reversal of neuropathic MA (allodynic score): reversed MA; also recorded: quickly reversed
[4]; p38 alpha, read-out: Mean IC50
  IC50: 1.46 µM
[4]; read-out: IC50 toward p38α MAPK
  IC50: 1.5 ± 0.7 µM
[5]
  remaining activity at 10 µM: 116%
[6]
  remaining activity at 10 µM: 77%
[7]
  remaining activity at 10 µM: 88%
[8]
  remaining activity at 10 µM: 107%
[9]
  remaining activity at 10 µM: 113%
[10]
  remaining activity at 10 µM: 98%
